This is an account of results in patent US8471005B2 (Cephalon, Inc., priority 2008, dated 2013).

The target in test [1] is T1, ALK (Homo sapiens, UniProt Q9UM73).
T1 construct: host or cells: baculovirus expression system
The test is described as follows: ALK Kinase Assay (ELISA/TRF, PLC-γ substrate). The format is biochemical. The settings on record: ALK kinase inhibition, 1 μM ATP; read-out: ALK Potency. The procedure, abridged:
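Read-out is time-resolved fluorescence from a Eu-N1-labeled PT66 antibody that binds phosphorylated PLC-γ, the substrate coated at 10 μg/mL in TBS. ALK at 30 ng/ml starts the reaction, which runs 15 minutes at 37° C.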
(ELISA stands for enzyme-linked immunosorbent assay.)

Test [2] deals with T2, JAK2 (Homo sapiens, UniProt O60674).
T2 construct: host or cells: baculovirus expression system
The test can be described thus: Recombinant Human JAK2 Kinase Assay (TRF). The format is biochemical. Conditions: JAK2 kinase inhibition, 0.2 μM ATP; read-out: JAK2 Potency. The procedure, abridged: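 TRF read-out: Eu-N1 PY100 anti-phosphotyrosine antibody detects product. Enzyme is baculovirus-expressed JAK2 at 15 ng/ml; substrate is a biotinyl 15-mer peptide bound to Neutravidin-coated wells. Buffer 20 mM HEPES pH 7.2, 0.2 μM ATP, 1 mM MnCl2, 0.1% BSA, 2.5% DMSO final; 20 min, RT.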

T1 sequence (Q9UM73 19-1620): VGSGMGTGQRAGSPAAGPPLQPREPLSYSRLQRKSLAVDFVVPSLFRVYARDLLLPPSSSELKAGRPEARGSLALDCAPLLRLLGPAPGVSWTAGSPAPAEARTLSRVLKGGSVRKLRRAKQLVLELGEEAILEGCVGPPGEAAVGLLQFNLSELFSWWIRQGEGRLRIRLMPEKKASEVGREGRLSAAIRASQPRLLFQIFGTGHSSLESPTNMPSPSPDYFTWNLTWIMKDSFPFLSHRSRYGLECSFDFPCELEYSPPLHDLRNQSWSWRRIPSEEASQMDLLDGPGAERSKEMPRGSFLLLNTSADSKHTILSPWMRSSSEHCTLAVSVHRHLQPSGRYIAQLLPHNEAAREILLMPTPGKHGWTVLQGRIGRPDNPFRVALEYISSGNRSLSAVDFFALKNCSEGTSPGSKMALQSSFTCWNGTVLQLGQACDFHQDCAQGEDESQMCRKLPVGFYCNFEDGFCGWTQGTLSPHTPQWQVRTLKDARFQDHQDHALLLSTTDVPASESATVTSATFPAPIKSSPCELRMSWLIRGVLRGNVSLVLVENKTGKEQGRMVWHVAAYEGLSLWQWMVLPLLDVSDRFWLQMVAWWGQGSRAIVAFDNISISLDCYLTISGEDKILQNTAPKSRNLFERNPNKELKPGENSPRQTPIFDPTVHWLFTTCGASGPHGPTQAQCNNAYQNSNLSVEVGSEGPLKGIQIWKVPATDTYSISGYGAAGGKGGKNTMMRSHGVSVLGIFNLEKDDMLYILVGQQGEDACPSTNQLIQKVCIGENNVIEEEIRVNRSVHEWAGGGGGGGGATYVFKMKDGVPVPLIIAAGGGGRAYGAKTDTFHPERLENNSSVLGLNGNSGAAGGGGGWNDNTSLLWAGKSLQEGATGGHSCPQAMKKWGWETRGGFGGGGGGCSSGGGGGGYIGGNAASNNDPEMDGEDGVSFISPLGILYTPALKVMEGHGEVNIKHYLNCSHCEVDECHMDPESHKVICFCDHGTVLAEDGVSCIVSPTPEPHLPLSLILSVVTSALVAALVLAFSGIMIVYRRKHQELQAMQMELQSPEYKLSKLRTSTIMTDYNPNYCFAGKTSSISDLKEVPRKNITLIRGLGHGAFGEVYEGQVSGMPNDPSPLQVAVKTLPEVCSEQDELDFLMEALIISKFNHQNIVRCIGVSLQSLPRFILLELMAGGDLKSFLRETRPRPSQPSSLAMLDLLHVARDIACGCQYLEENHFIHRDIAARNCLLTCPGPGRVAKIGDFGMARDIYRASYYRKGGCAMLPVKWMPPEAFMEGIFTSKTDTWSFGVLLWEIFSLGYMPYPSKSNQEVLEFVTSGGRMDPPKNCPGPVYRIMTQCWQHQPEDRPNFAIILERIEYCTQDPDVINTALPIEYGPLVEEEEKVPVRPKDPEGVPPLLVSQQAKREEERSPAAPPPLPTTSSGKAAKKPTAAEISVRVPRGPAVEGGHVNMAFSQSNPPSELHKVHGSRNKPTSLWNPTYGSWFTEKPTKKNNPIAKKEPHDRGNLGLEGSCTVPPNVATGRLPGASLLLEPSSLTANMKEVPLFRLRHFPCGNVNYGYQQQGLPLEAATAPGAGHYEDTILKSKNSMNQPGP
T2 sequence (O60674 whole entry): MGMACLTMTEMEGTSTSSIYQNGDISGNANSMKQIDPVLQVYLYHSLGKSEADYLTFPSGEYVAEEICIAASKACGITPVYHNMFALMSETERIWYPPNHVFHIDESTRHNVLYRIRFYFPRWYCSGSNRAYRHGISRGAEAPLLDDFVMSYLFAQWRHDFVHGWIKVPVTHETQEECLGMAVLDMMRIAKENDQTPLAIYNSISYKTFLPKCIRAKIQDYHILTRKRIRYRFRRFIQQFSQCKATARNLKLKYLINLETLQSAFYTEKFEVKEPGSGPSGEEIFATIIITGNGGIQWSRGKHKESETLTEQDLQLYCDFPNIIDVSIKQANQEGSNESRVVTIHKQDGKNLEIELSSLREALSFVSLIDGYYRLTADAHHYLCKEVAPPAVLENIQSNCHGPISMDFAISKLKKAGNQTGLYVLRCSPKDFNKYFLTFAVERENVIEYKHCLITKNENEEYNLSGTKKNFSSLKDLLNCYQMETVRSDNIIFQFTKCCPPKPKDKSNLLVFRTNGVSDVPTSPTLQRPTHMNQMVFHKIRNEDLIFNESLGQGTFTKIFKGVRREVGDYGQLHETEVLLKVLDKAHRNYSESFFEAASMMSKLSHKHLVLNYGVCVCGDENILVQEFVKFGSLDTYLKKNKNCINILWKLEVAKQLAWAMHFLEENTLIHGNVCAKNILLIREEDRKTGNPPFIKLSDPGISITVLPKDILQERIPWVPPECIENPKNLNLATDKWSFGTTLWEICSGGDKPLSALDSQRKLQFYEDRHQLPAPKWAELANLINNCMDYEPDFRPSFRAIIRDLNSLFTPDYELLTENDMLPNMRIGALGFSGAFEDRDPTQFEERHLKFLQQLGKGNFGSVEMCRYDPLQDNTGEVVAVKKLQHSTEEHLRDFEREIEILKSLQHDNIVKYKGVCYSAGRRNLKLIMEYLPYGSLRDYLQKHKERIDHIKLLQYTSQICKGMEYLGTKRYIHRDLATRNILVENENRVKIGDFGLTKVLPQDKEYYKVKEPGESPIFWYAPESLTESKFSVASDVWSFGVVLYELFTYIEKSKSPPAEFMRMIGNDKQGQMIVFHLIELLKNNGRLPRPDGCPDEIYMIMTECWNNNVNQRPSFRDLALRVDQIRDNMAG

For `CN1CCCC1COc1cc(Nc2ncc3ccc(-c4cccc(S(=O)(=O)NC(C)(C)C)c4)n3n2)ccc1Cl` (centres unmarked) [Example 1009, N-tert-Butyl-3-{2-[4-chloro-3-(1-methyl-pyrrolidin-2-ylmethoxy)-phenylamino]-pyrrolo[2,1-f][1,2,4]triazin-7-yl}-benzenesulfonamide], the IC50 in test [1] is 100 to 1000 nM; in test [2], less than 100 nM.
For `CN1CCCC1COc1cc(Nc2ncc3ccc(-c4ccccc4N(C)S(C)(=O)=O)n3n2)ccc1Cl` (centres unmarked) [Example 1010, N-(2-{2-[4-Chloro-3-(1-methyl-pyrrolidin-2-ylmethoxy)-phenylamino]-pyrrolo[2,1-f][1,2,4]triazin-7-yl}-phenyl)-N-methyl-methanesulfonamide], the IC50 in test [1] was 100 to 1000 nM; in test [2] it was less than 100 nM.
For the molecule `COc1ccccc1-c1ccc2cnc(Nc3ccc(Cl)c(OCC4CCCN4C)c3)nn12` (centres unmarked) [Example 1011, [4-Chloro-3-(1-methyl-pyrrolidin-2-ylmethoxy)-phenyl]-[7-(2-methoxy-phenyl)-pyrrolo[2,1-f][1,2,4]triazin-2-yl]-amine], the IC50 in test [1] was 100 to 1000 nM; in test [2], less than 100 nM.
For the molecule `COc1ccccc1-c1ccc2cnc(Nc3ccc(C4CCNC4)cc3)nn12` (centres unmarked) [Example 1012, [7-(2-Methoxy-phenyl)-pyrrolo[2,1-f][1,2,4]triazin-2-yl]-(4-pyrrolidin-3-yl-phenyl)-amine], the IC50 in test [1] and in test [2] was less than 100 nM throughout.
Take `CN1CCCC1COc1cc(Nc2ncc3ccc(-c4cccc(S(C)(=O)=O)c4)n3n2)ccc1Cl` (centres unmarked) [Example 1013, [4-Chloro-3-(1-methyl-pyrrolidin-2-ylmethoxy)-phenyl]-[7-(3-methanesulfonyl-phenyl)-pyrrolo[2,1-f][1,2,4]triazin-2-yl]-amine]: the IC50 in test [1] is 1000 to 10000 nM; in test [2], less than 100 nM.
The corresponding values for `CC(C)(C)NS(=O)(=O)c1cccc(-c2ccc3cnc(Nc4ccc(C5CCNCC5O)cc4)nn23)c1` (centres unmarked) [Example 1014, N-tert-Butyl-3-{2-[4-(3-hydroxy-piperidin-4-yl)-phenylamino]-pyrrolo[2,1-f][1,2,4]triazin-7-yl}-benzenesulfonamide] are less than 100 nM and less than 100 nM.
Regarding `CC(C)S(=O)(=O)c1cccc(-c2ccc3cnc(Nc4ccc(Cl)c(OC[C@@H]5CCCN5)c4)nn23)c1` [Example 1015, [4-Chloro-3-((S)-1-pyrrolidin-2-ylmethoxy)-phenyl]-{7-[3-(propane-2-sulfonyl)-phenyl]-pyrrolo[2,1-f][1,2,4]triazin-2-yl}-amine], the IC50 in test [1] was 100 to 1000 nM; in test [2], less than 100 nM.
Regarding `CC(C)S(=O)(=O)c1cccc(-c2ccc3cnc(Nc4ccc(Cl)c(OC[C@H]5CCCN5)c4)nn23)c1` [Example 1016, [4-Chloro-3-((R)-1-pyrrolidin-2-ylmethoxy)-phenyl]-{7-[3-(propane-2-sulfonyl)-phenyl]-pyrrolo[2,1-f][1,2,4]triazin-2-yl}-amine], the IC50 in test [1] was 100 to 1000 nM; in test [2], less than 100 nM.
With `CS(=O)(=O)c1cccc(-c2ccc3cnc(Nc4ccc(C5CCNCC5O)cc4)nn23)c1` (centres unmarked) [Example 1018, 4-{4-[7-(3-methanesulfonyl-phenyl)-pyrrolo[2,1-f][1,2,4]triazin-2-ylamino]-phenyl}-piperidine-3-ol], the IC50 in test [1] is 100 to 1000 nM; in test [2], less than 100 nM.
On to `CS(=O)(=O)c1cccc(-c2ccc3cnc(Nc4ccc(Cl)c(OC[C@@H]5CCCN5)c4)nn23)c1` [Example 1020, [4-Chloro-3-((S)-1-pyrrolidin-2-ylmethoxy)-phenyl]-[7-(3-methanesulfonyl-phenyl)-pyrrolo[2,1-f][1,2,4]triazin-2-yl]-amine], for which the IC50 in test [1] was 1000 to 10000 nM; in test [2], less than 100 nM.
The like results for `CS(=O)(=O)c1cccc(-c2ccc3cnc(Nc4ccc(Cl)c(OC[C@H]5CCCN5)c4)nn23)c1` [Example 1021, [4-Chloro-3-((R)-1-pyrrolidin-2-ylmethoxy)-phenyl]-[7-(3-methanesulfonyl-phenyl)-pyrrolo[2,1-f][1,2,4]triazin-2-yl]-amine] were, in that order, 1000 to 10000 nM and less than 100 nM.
The corresponding values for `COc1ccc(Cl)cc1-c1ccc2cnc(Nc3ccc(C4CCN(CC(N)=O)CC4)cc3)nn12` [Example 1024] are less than 100 nM and less than 100 nM.
As for `CS(=O)(=O)c1cccc(-c2ccc3cnc(Nc4ccc(C5CCNCC5)nc4)nn23)c1` [Example 1025, (1′,2′,3′,4′,5′,6′-Hexahydro-[2,4′]bipyridinyl-5-yl)-[7-(3-methanesulfonyl-phenyl)-pyrrolo[2,1-f][1,2,4]triazin-2-yl]-amine], the IC50 in test [1] was 100 to 1000 nM; in test [2], less than 100 nM.
Regarding `COc1ccccc1-c1ccc2cnc(Nc3ccc(C4CCNCC4)nc3)nn12` [Example 1026, (1′,2′,3′,4′,5′,6′-Hexahydro-[2,4]bipyridinyl-5-yl)-[7-(2-methoxy-phenyl)-pyrrolo[2,1-f][1,2,4]triazin-2-yl]-amine], the IC50 in test [1] and in test [2] was less than 100 nM in each case.
On to `CN1CCN(c2ccc(Nc3ncc4ccc(-c5ccc(CN6CCS(=O)(=O)CC6)cc5)n4n3)cc2)CC1` [Example 1031, {7-[4-(1,1-Dioxo-1$1(6)-thiomorpholin-4-ylmethyl)-phenyl]-pyrrolo[2,1-f][1,2,4]triazin-2-yl}-[4-(4-methyl-piperazin-1-yl)-phenyl]-amine], for which the IC50 in test [1] and in test [2] was less than 100 nM throughout.
`O=S1(=O)CCN(Cc2ccc(-c3ccc4cnc(Nc5ccc(N6CCOCC6)cc5)nn34)cc2)CC1` [Example 1032, {7-[4-(1,1-Dioxo-1$1(6)-thiomorpholin-4-ylmethyl)-phenyl]-pyrrolo[2,1-f][1,2,4]triazin-2-yl}-(4-morpholin-4-yl-phenyl)-amine]: the values for the IC50 in test [1] and in test [2] were 100 to 1000 nM and less than 100 nM, respectively.
As to `c1ccc2ncc(-c3ccc4cnc(Nc5ccc(N6CCOCC6)cc5)nn34)cc2c1` [Example 1033, (4-Morpholin-4-yl-phenyl)-(7-quinolin-3-yl-pyrrolo[2,1-f][1,2,4]triazin-2-yl)-amine], the IC50 in test [1] is 1000 to 10000 nM; in test [2], less than 100 nM.
`Clc1ncccc1-c1ccc2cnc(Nc3ccc(N4CCOCC4)cc3)nn12` [Example 1034, [7-(2-Chloro-pyridin-3-yl)-pyrrolo[2,1-f][1,2,4]triazin-2-yl]-(4-morpholin-4-yl-phenyl)-amine]: the IC50 in test [1] is 1000 to 10000 nM; in test [2], less than 100 nM.
With `CN(C)Cc1ccccc1-c1ccc2cnc(Nc3ccc(N4CCOCC4)cc3)nn12` [Example 1035, [7-(2-Dimethylaminomethyl-phenyl)-pyrrolo[2,1-f][1,2,4]triazin-2-yl]-(4-morpholin-4-yl-phenyl)-amine], the IC50 in test [1] was in the range of 1000 to 10000 nM; in test [2], 100 to 1000 nM.
The like results for `CN1CCN(c2ccc(Nc3ncc4ccc(-c5cccnc5Cl)n4n3)cc2)CC1` [Example 1036, [7-(2-Chloro-pyridin-3-yl)-pyrrolo[2,1-f][1,2,4]triazin-2-yl]-[4-(4-methyl-piperazin-1-yl)-phenyl]-amine] were, in that order, 100 to 1000 nM and less than 100 nM.
The like results for `CN1CCN(c2ccc(Nc3ncc4ccc(-c5cnc6ccccc6c5)n4n3)cc2)CC1` [Example 1037, [4-(4-Methyl-piperazin-1-yl)-phenyl]-(7-quinolin-3-yl-pyrrolo[2,1-f][1,2,4]triazin-2-yl)-amine] were, in that order, less than 100 nM and less than 100 nM.
Consider `Cc1ccncc1-c1ccc2cnc(Nc3ccc(N4CCOCC4)cc3)nn12` [Example 1038, [7-(4-Methyl-pyridin-3-yl)-pyrrolo[2,1-f][1,2,4]triazin-2-yl]-(4-morpholin-4-yl-phenyl)-amine], for which the IC50 in test [1] was 1000 to 10000 nM; in test [2], less than 100 nM.
As to `Cc1ccncc1-c1ccc2cnc(Nc3ccc(N4CCN(C)CC4)cc3)nn12` [Example 1039, [4-(4-Methyl-piperazin-1-yl)-phenyl]-[7-(4-methyl-pyridin-3-yl)-pyrrolo[2,1-f][1,2,4]triazin-2-yl]-amine], the values for the IC50 in test [1] and in test [2] were 100 to 1000 nM and less than 100 nM, respectively.
For `Fc1ncccc1-c1ccc2cnc(Nc3ccc(N4CCOCC4)cc3)nn12` [Example 1040, [7-(2-Fluoro-pyridin-3-yl)-pyrrolo[2,1-f][1,2,4]triazin-2-yl]-(4-morpholin-4-yl-phenyl)-amine], the IC50 is 100 to 1000 nM in test [1] and less than 100 nM in test [2].
For `CN1CCN(c2ccc(Nc3ncc4ccc(-c5cccnc5F)n4n3)cc2)CC1` [Example 1041, [7-(2-Fluoro-pyridin-3-yl)-pyrrolo[2,1-f][1,2,4]triazin-2-yl]-[4-(4-methyl-piperazin-1-yl)-phenyl]-amine], the IC50 was 100 to 1000 nM in test [1] and less than 100 nM in test [2].
In the case of `Cc1nc(-c2ccc3cnc(Nc4ccc(N5CCN(C)CC5)cc4)nn23)cn1C` [Example 1042, [7-(1,2-Dimethyl-1H-imidazol-4-yl)-pyrrolo[2,1-f][1,2,4]triazin-2-yl]-[4-(4-methyl-piperazin-1-yl)-phenyl]-amine], the IC50 is 100 to 1000 nM in test [1] and less than 100 nM in test [2].
In the case of `CN1CCN(c2ccc(Nc3ncc4ccc(-c5cn(C)cn5)n4n3)cc2)CC1` [Example 1043, [7-(1-Methyl-1H-imidazol-4-yl)-pyrrolo[2,1-f][1,2,4]triazin-2-yl]-[4-(4-methyl-piperazin-1-yl)-phenyl]-amine], the IC50 was 100 to 1000 nM in test [1] and less than 100 nM in test [2].
With `Cc1nc(-c2ccc3cnc(Nc4ccc(N5CCOCC5)cc4)nn23)cn1C` [Example 1044, [7-(1,2-Dimethyl-1H-imidazol-4-yl)-pyrrolo[2,1-f][1,2,4]triazin-2-yl]-(4-morpholin-4-yl-phenyl)-amine], the IC50 in test [1] is 1000 to 10000 nM; in test [2] it was less than 100 nM.
